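1) Cells in 96-well plates. 2) Compound, 48 h, 5 concentrations. 3) Linear interpolation between surrounding doses. 4) Unreached endpoint = highest concentration. Definition used: TGI = concentration required for complete inhibition of growth.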
Columns and labels:
Experiment in all cases: growth of human tumour cells (NCI), 48 h
SW-620 colon = tested on: SW-620 colon
NCI-H460 lung = tested on: NCI-H460 lung
SNB-19 CNS = tested on: SNB-19 CNS
UO-31 renal = tested on: UO-31 renal
RXF-631 renal = tested on: RXF-631 renal
K-562 leukemia = tested on: K-562 leukemia
OVCAR-5 ovarian = tested on: OVCAR-5 ovarian
EKVX NSCLC = tested on: EKVX NSCLC
A549 NSCLC = tested on: A549 NSCLC
MALME-3M melanoma = tested on: MALME-3M melanoma
NCI-H522 lung = tested on: NCI-H522 lung
COLO 205 colon = tested on: COLO 205 colon
HL-60(TB) leukemia = tested on: HL-60(TB) leukemia
SNB-78 CNS = tested on: SNB-78 CNS
SK-MEL-5 melanoma = tested on: SK-MEL-5 melanoma
MOLT-4 leukemia = tested on: MOLT-4 leukemia
HCT-15 colon = tested on: HCT-15 colon
ACHN renal = tested on: ACHN renal
M14 melanoma = tested on: M14 melanoma
OVCAR-3 ovarian = tested on: OVCAR-3 ovarian
DMS 273 small cell lung = tested on: DMS 273 small cell lung
TK-10 renal = tested on: TK-10 renal
DLD-1 colon = tested on: DLD-1 colon
SF-268 CNS = tested on: SF-268 CNS
KM20L2 colon = tested on: KM20L2 colon
KM12 colon = tested on: KM12 colon
IGROV1 ovarian = tested on: IGROV1 ovarian
SK-MEL-2 melanoma = tested on: SK-MEL-2 melanoma
SNB-75 CNS = tested on: SNB-75 CNS
SF-539 CNS = tested on: SF-539 CNS
UACC-257 melanoma = tested on: UACC-257 melanoma
CCRF-CEM leukemia = tested on: CCRF-CEM leukemia
SK-OV-3 ovarian = tested on: SK-OV-3 ovarian
RPMI-8226 leukemia = tested on: RPMI-8226 leukemia
RXF 393 renal = tested on: RXF 393 renal
NCI-H226 lung = tested on: NCI-H226 lung
HT29 colon = tested on: HT29 colon
HCT-116 colon = tested on: HCT-116 colon
LXFL 529 NSCLC = tested on: LXFL 529 NSCLC
OVCAR-4 ovarian = tested on: OVCAR-4 ovarian
UACC-62 melanoma = tested on: UACC-62 melanoma
U251 CNS = tested on: U251 CNS
A498 renal = tested on: A498 renal
HOP-62 NSCLC = tested on: HOP-62 NSCLC
SF-295 CNS = tested on: SF-295 CNS
786-0 renal = tested on: 786-0 renal
XF 498 CNS = tested on: XF 498 CNS
HCC-2998 colon = tested on: HCC-2998 colon
SN12C renal = tested on: SN12C renal
HOP-18 NSCLC = tested on: HOP-18 NSCLC
SR leukemia = tested on: SR leukemia
OVCAR-8 ovarian = tested on: OVCAR-8 ovarian
LOX IMVI melanoma = tested on: LOX IMVI melanoma
SK-MEL-28 melanoma = tested on: SK-MEL-28 melanoma
NCI-H23 lung = tested on: NCI-H23 lung

## COC(=O)CCC(NC(=S)N/N=C(\C)c1cnc2ccccc2n1)C(=O)OC (stereo not given)
SW-620 colon
  TGI: > 100 µM
NCI-H460 lung
  TGI: > 100 µM
SNB-19 CNS
  TGI: > 100 µM
UO-31 renal
  TGI: > 100 µM
RXF-631 renal
  TGI: > 100 µM
K-562 leukemia
  TGI: > 100 µM
OVCAR-5 ovarian
  TGI: 63.4 µM
EKVX NSCLC
  TGI: > 100 µM
A549 NSCLC
  TGI: > 100 µM
MALME-3M melanoma
  TGI: > 100 µM
NCI-H522 lung
  TGI: 38.2 µM
COLO 205 colon
  TGI: 5.37 µM
HL-60(TB) leukemia
  TGI: 9.3 µM
SNB-78 CNS
  TGI: > 100 µM
SK-MEL-5 melanoma
  TGI: 80.7 µM
MOLT-4 leukemia
  TGI: 59.4 µM
HCT-15 colon
  TGI: > 100 µM
ACHN renal
  TGI: 89.2 µM
M14 melanoma
  TGI: > 100 µM
OVCAR-3 ovarian
  TGI: > 100 µM
DMS 273 small cell lung
  TGI: > 100 µM
TK-10 renal
  TGI: > 100 µM
DLD-1 colon
  TGI: > 100 µM
SF-268 CNS
  TGI: > 100 µM
KM20L2 colon
  TGI: 46 µM
KM12 colon
  TGI: 80.4 µM
IGROV1 ovarian
  TGI: > 100 µM
SK-MEL-2 melanoma
  TGI: > 100 µM
SNB-75 CNS
  TGI: > 100 µM
SF-539 CNS
  TGI: > 100 µM
UACC-257 melanoma
  TGI: > 100 µM
CCRF-CEM leukemia
  TGI: 15.7 µM
SK-OV-3 ovarian
  TGI: > 100 µM
RPMI-8226 leukemia
  TGI: 36.8 µM
RXF 393 renal
  TGI: 86 µM
NCI-H226 lung
  TGI: > 100 µM
HT29 colon
  TGI: 31.3 µM
HCT-116 colon
  TGI: 38.6 µM
LXFL 529 NSCLC
  TGI: > 100 µM
OVCAR-4 ovarian
  TGI: > 100 µM
UACC-62 melanoma
  TGI: 38.5 µM
U251 CNS
  TGI: > 100 µM
A498 renal
  TGI: > 100 µM
HOP-62 NSCLC
  TGI: > 100 µM
SF-295 CNS
  TGI: > 100 µM
786-0 renal
  TGI: > 100 µM
XF 498 CNS
  TGI: > 100 µM
HCC-2998 colon
  TGI: > 100 µM
SN12C renal
  TGI: > 100 µM
HOP-18 NSCLC
  TGI: > 100 µM
SR leukemia
  TGI: 42.8 µM
OVCAR-8 ovarian
  TGI: > 100 µM
LOX IMVI melanoma
  TGI: 66.3 µM
SK-MEL-28 melanoma
  TGI: > 100 µM
NCI-H23 lung
  TGI: > 100 µM

Reference: PubChem BioAssay (NCI)
